Assay results as given in patent publication US8901307B2, “Chemical compounds 251” (AstraZeneca AB, priority 2008, dated 2014).
Where a name gives a salt, the structure may show the parent alone.

Tests used:
[1] = molecular target: T1, human His-PIM2 [23-299] (Homo sapiens, UniProt Q9P1W9); test: PIM2 in-vitro mobility shift assay (Caliper LC3000, FL-Ahx-Bad phosphorylation); assay type: biochemical; conditions: 1.5 h; percent inhibition at 0.3 uM compound; read-out: PIM2 % I at 0.3 uM
T1 construct: purified human His-PIM2 [23-299] enzyme; His (N); host or cells: E. coli
Text: PIM2 In-Vitro Mobility Shift Assay
(§1) One may determine the activity of purified human His-PIM2 [23-299] enzyme in-vitro using a mobility shift assay on a Caliper LC3000 reader (Caliper, Mass.), which measures fluorescence of a phosphorylated and unphosphorylated FL-Ahx-Bad (FITC-(AHX)RSRHSSYPAGT-COOH, Primm 200606-00289, Primm Biotech, Mass.) and calculates a ratiometric value to determine percent turnover. One may express PIM2 (produced at AstraZeneca, R&D Boston) in E. coli cells with a typical yield of >90% purity.
One determines phosphorylation of the FL-Ahx-Bad in the presence and absence of the compound of interest. One preincubates 5 uL of Enzyme/Substrate/adenosine triphosphate (ATP) mix consisting of 2.4 nM […], 3.6 uM FL-Ahx-Bad, and 12 uM ATP in 1.2× buffer with 2 ul of compound for 20 minutes at 25° C. One initiates reactions with 5 uL of Metal mix consisting of 24 mM MgCl2 in 1.2× buffer and incubates at 25° C. for 90 minutes. One stops reactions by addition of 5 uL of Stop mix consisting of 100 mM HEPES, 121 mM ethylenediamine tetraacetic acid, 0.8% Coatin Reagent 3 (Caliper, Mass.), and 0.01% Tween. One detects phosphorylated and unphosphorylated substrate by a Caliper LC3000 reader (Caliper, Mass.) in the presence of separation buffer consisting of 100 mM HEPES, 16 mM ethylenediamine tetraacetic acid, 0.1% Coatin Reagent 3 (Caliper, Mass.), 0.015% Brij-35, 5% DMSO, and 5.6 mM MgCl2. One may use the following separation conditions for a Caliper LC3000: −1.0 PSI, −2000 V upstream voltage, −400 V downstream voltage, 0.2 second sample sip, 45 second post sip, 10% laser strength.

[2] = molecular target: T2, human His-PIM1 [2-313] (Homo sapiens, UniProt P11309); test: PIM1 in-vitro mobility shift assay (Caliper LC3000, FL-Ahx-Bad phosphorylation); assay type: biochemical; conditions: 1.5 h; percent inhibition at 0.3 uM compound; read-out: PIM1 % I at 0.3 uM
T2 construct: purified human His-PIM1 [2-313] enzyme; His (N); purchased University of Dundee, Scotland; host or cells: baculovirus system
Text: PIM1 In-Vitro Mobility Shift Assay
as §1, with “His-PIM1 [2-313]” for “His-PIM2 [23-299]”, “PIM1 (University of Dundee, Scotland)” for “PIM2 (produced at AstraZeneca, R&D Boston)”, “baculovirus system” for “E. coli cells”, “>85%” for “>90%”
One determines phosphorylation of the FL-Ahx-Bad in the presence and absence of the compound of interest. One preincubates 5 µl of Enzyme/Substrate/adenosine triphosphate (ATP) mix consisting of 2.4 nM PIM1, 3.6 uM FL-Ahx-Bad, and 240 uM ATP in 1.2× buffer with 2 ul of compound for 20 minutes at 25° C. One initiates reactions with 5 ul of Metal mix consisting of 24 mM MgCl2 in 1.2× buffer and incubated at 25° C. for 90 minutes and stops the reactions by addition of 5 ul of Stop mix consisting of 100 mM HEPES, 121 mM ethylenediamine tetraacetic acid, 0.8% Coatin Reagent 3 (Caliper, Mass.), and 0.01% Tween. One detects phosphorylated and unphosphorylated substrate by a Caliper LC3000 reader (Caliper, Mass.) in the presence of separation buffer consisting of 100 mM HEPES, 16 mM ethylenediamine tetraacetic acid, 0.1% Coatin Reagent 3 (Caliper, Mass.), 0.015% Brij-35, 5% DMSO, and 5.6 mM MgCl2. One may use the following separation conditions for a Caliper LC3000: −1.0 PSI, −2000 V upstream voltage, −400 V downstream voltage, 0.2 second sample sip, 45 second post sip, 10% laser strength.
The table 1 below provides the percent inhibition of PIM1 at 0.3 micromolar for Examples provided herein. Several examples were tested more than once. Variations in the experimental outcomes, negative values, or values over 100% inhibition are presumably due to experimental error inherent in the assay.

T2 sequence (P11309 2-313): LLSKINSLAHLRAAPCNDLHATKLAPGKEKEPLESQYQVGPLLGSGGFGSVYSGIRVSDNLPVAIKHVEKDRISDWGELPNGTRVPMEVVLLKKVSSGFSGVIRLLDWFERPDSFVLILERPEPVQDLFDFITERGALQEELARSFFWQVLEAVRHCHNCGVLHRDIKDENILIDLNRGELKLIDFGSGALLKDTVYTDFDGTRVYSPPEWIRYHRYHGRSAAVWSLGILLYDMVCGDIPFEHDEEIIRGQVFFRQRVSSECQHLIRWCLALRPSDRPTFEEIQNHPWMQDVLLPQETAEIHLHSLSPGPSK
T1 sequence (Q9P1W9 23-299): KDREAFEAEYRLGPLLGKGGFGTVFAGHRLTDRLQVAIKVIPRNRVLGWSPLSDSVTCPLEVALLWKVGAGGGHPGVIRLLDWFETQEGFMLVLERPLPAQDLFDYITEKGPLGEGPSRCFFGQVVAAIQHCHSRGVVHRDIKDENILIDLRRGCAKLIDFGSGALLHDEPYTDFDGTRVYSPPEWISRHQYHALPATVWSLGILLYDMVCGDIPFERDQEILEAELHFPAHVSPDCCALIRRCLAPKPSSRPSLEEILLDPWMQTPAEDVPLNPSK

Structure (SMILES) | inhibition at 0.3 µM [1] | inhibition at 0.3 µM [2]
CN(C)C1CCN(c2ccc(C(N)=O)cc2/C=C2\SC(=O)NC2=O)C1 (centres unmarked) [Example 57, (Z)-4-(3-(dimethylamino)pyrrolidin-1-yl)-3-((2,4-dioxothiazolidin-5-ylidene)methyl)benzamide hydrochloride] | 42.6% | 53.3%
CC(C)(C)OC(=O)N1CCN(c2ccccc2/C=C2\SC(=O)NC2=O)CC1 [Example 58, (Z)-tert-butyl 4-(2-((2,4-dioxothiazolidin-5-ylidene)methyl)phenyl)piperazine-1-carboxylate] | 7.1% | 16%
COc1cc(/C=C2\SC(=O)NC2=O)ccc1OCCN1CCCCC1 [Example 59, (Z)-5-(3-methoxy-4-(2-(piperidin-1-yl)ethoxy)benzylidene)thiazolidine-2,4-dione] | 6.6% | < 5%
O=C1NC(=O)/C(=C/c2ccccc2OCCO)S1 [Example 60, (Z)-5-(2-(2-hydroxyethoxy)benzylidene)thiazolidine-2,4-dione] | 11.3% | 35.4%
COc1ccc(OCCN2CCCCC2)c(/C=C2\SC(=O)NC2=O)c1 [Example 61, (Z)-5-(5-methoxy-2-(2-(piperidin-1-yl)ethoxy)benzylidene)thiazolidine-2,4-dione] | 28.1% | 81.8%
COc1ccc(OCCN2CCOCC2)c(/C=C2\SC(=O)NC2=O)c1 [Example 62, (Z)-5-(5-methoxy-2-(2-morpholinoethoxy)benzylidene)thiazolidine-2,4-dione] | 17.5% | 62.1%
CCN(CC)CCOc1ccc(OC)cc1/C=C1\SC(=O)NC1=O [Example 63, (Z)-5-(2-(2-(diethylamino)ethoxy)-5-methoxybenzylidene)thiazolidine-2,4-dione] | 21.5% | 79.2%
CCN(CC)CCOc1ccccc1/C=C1\SC(=O)NC1=O [Example 64, (Z)-5-(2-(2-(diethylamino)ethoxy)benzylidene)thiazolidine-2,4-dione] | 25.7% | 86.5%
COc1cc(/C=C2\SC(=O)NC2=O)c(-c2cccnc2)cc1OC [Example 65, (Z)-5-(4,5-dimethoxy-2-(pyridin-3-yl)benzylidene)thiazolidine-2,4-dione] | 18.9% | 45.3%
COc1cc(/C=C2\SC(=O)NC2=O)c(-c2ccncc2)cc1OC [Example 66, (Z)-5-(4,5-dimethoxy-2-(pyridin-4-yl)benzylidene)thiazolidine-2,4-dione] | 20.9% | 50.3%
O=C1NC(=O)/C(=C/c2n[nH]c3ccccc23)S1 [Example 68, (Z)-5-((1H-indazol-3-yl)methylene)thiazolidine-2,4-dione] | 9% | 41.9%
O=C1NC(=O)/C(=C/c2ccc[nH]c2=O)S1 [Example 70, (Z)-5-((2-oxo-1,2-dihydropyridin-3-yl)methylene)thiazolidine-2,4-dione] | < 5% | < 5%
O=C1NC(=O)/C(=C/c2cn[nH]c2)S1 [Example 71, (Z)-5-((1H-pyrazol-4-yl)methylene)thiazolidine-2,4-dione] | < 5% | < 5%
O=C1NC(=O)/C(=C/c2ccncc2)S1 [Example 72, (Z)-5-(pyridin-4-ylmethylene)thiazolidine-2,4-dione] | < 5% | < 5%
Cn1nnc2cc(/C=C3\SC(=O)NC3=O)ccc21 [Example 73, (5Z)-5-[(1-methyl-1H-1,2,3-benzotriazol-5-yl)methylene]-1,3-thiazolidine-2,4-dione] | < 5% | < 5%
Cn1ccc2ccc(/C=C3\SC(=O)NC3=O)cc21 [Example 75, (5Z)-5-[(1-methyl-1H-indol-6-yl)methylene]-1,3-thiazolidine-2,4-dione] | 69.5% | > 95%
Cn1ccc2cc(/C=C3\SC(=O)NC3=O)ccc21 [Example 76, (5Z)-5-[(1-methyl-1H-indol-5-yl)methylene]-1,3-thiazolidine-2,4-dione] | 27.6% | 59.6%
O=C1NC(=O)/C(=C/c2ccc3ncccc3c2)S1 [Example 77, (5Z)-5-(quinolin-6-ylmethylene)-1,3-thiazolidine-2,4-dione trifluoroacetate] | 22.7% | 51.2%
O=C1NC(=O)/C(=C/c2ccc3[nH]ccc3c2)S1 [Example 78, (5Z)-5-(1H-indol-5-ylmethylene)-1,3-thiazolidine-2,4-dione] | 30% | 71.4%
O=C1NC(=O)/C(=C/c2ccc3cc[nH]c3c2)S1 [Example 79, (5Z)-5-(1H-indol-6-ylmethylene)-1,3-thiazolidine-2,4-dione trifluoroacetate] | 60.7% | 90%
O=C1NC(=O)/C(=C/c2ccccc2N2CCOCC2)S1 [Example 82, (5Z)-5-(2-morpholin-4-ylbenzylidene)-1,3-thiazolidine-2,4-dione] | 58.2% | 87.4%
CN1CCN(c2ccccc2/C=C2\SC(=O)NC2=O)CC1 [Example 84A, (5Z)-5-[2-(4-methylpiperazin-1-yl)benzylidene]-1,3-thiazolidine-2,4-dione] | 54.3% | 92.9%
NC(=O)COc1cccc(/C=C2\SC(=O)NC2=O)c1 [Example 84C, (Z)-2-(3-((2,4-dioxothiazolidin-5-ylidene)methyl)phenoxy)acetamide] | 29.6% | 47.8%
O=C1NC(=O)/C(=C/c2cccc(OCCCN3CCCCC3)c2)S1 [Example 84D, (Z)-5-(3-(3-(piperidin-1-yl)propoxy)benzylidene)thiazolidine-2,4-dione] | < 5% | 27.8%
CN1CCN(Cc2cccc(/C=C3\SC(=O)NC3=O)c2)CC1 [Example 84E, (Z)-5-(3-((4-methylpiperazin-1-yl)methyl)benzylidene)thiazolidine-2,4-dione] | 6.1% | 11.7%
CN(C)CCN(C)S(=O)(=O)c1ccc(-c2ccccc2/C=C2\SC(=O)NC2=O)cc1 [Example 84F, (Z)-N-(2-(dimethylamino)ethyl)-2′-((2,4-dioxothiazolidin-5-ylidene)methyl)-N-methylbiphenyl-4-sulfonamide] | 52.4% | 87.4%
COc1ccc(N2CC[C@H](N(C)C)C2)c(C=C2SC(=O)NC2=O)c1 [Example 84G, (S)-5-(2-(3-(dimethylamino)pyrrolidin-1-yl)-5-methoxybenzylidene)thiazolidine-2,4-dione] | 63% | 92%
CN(C)[C@H]1CCN(c2ccc(C(F)(F)F)cc2C=C2SC(=O)NC2=O)C1 [Example 84H, (S)-5-(2-(3-(dimethylamino)pyrrolidin-1-yl)-5-(trifluoromethyl)benzylidene)thiazolidine-2,4-dione] | 67% | > 95%
